Results from ChEMBL document CHEMBL1255199, “Endochin optimization: structure-activity and structure-property relationship studies of 3-substituted 2-methyl-4(1H)-quinolones with antimalarial activity” (J Med Chem, 2010).
In brackets after ≈: the same amount, converted by molar mass.

Tests used:
Plasmodium falciparum [1] = test: Antimalarial activity against chloroquine and pyrimethamine-resistant Plasmodium falciparum W2 infected in human A+ erythrocytes after 72 hrs by SYBR Green I assay; type: functional, organism-based; conditions: W2, 72 h
[2] = Passive transcellular permeability of the compound at pH 7.4 by PAMPA; type: ADME; conditions: for Papp: read-out: permeability
Plasmodium falciparum [3] = test: Antimalarial activity against chloroquine, mefloquine, pyrimethamine and atovaquone-resistant Plasmodium falciparum TM90-C2B infected in human A+ erythrocytes after 72 hrs by SYBR Green I assay; type: functional, organism-based
J774 = test: Cytotoxicity against mouse J774 cells; type: cell-based
[4] = Lipophilicity, log D of the compound at pH 7.4; conditions: buffer
[5] = Passive transcellular permeability of the compound at pH 4 by PAMPA; type: ADME; conditions: for Papp: read-out: permeability
in vitro = conditions: mouse, J774 cells
Description: Cytotoxicity index, ratio of EC50 for mice (Mus musculus) J774 cells to EC50 for chloroquine, mefloquine, pyrimethamine and atovaquone-resistant Plasmodium falciparum TM90-C2B

physchem = conditions: aqueous, pH 7.4
Description: Aqueous solubility of the compound at pH 7.4 by HPLC analysis

| SMILES | EC50 (Plasmodium falciparum [1]) [µM] | Papp [2] [×10⁻⁶ cm/s] | EC50 (Plasmodium falciparum [3]) [µM] | EC50 (J774) [µM] | logD [4] | Papp [5] [×10⁻⁶ cm/s] | selectivity ratio (in vitro) | solubility (physchem) [µM] | permeability [5] [×10⁻⁶ cm/s] | permeability [2] [×10⁻⁶ cm/s] |
| --- | --- | --- | --- | --- | --- | --- | --- | --- | --- | --- |
| Cc1[nH]c2ccc(F)cc2c(=O)c1Br | 0.929 | 18.3 | 0.125 | > 39.1 | 1.61 | 16.2 | > 313 |  |  |  |
| Cc1[nH]c2cccc(Cl)c2c(=O)c1Cc1ccccc1 | 0.63 | 251 | 5.26 | > 35.2 | 2.65 | 244 | > 6.7 | 2 (≈ 0.568 µg/mL) |  |  |
| Cc1[nH]c2ccccc2c(=O)c1C1CCCCC1 | 0.591 | 230 | 2.23 | > 41.4 | 2.45 | 260 | > 18.6 | 10 (≈ 2.41 µg/mL) |  |  |
| COc1cc2[nH]c(C)c(CC(C)C)c(=O)c2cc1Cl | 0.0864 | 368 | 0.0633 | > 35.7 | 2.99 | 496 |  |  |  |  |
| Cc1[nH]c2ccccc2c(=O)c1-c1ccccc1 | 0.711 | 33 | 0.538 | > 42.5 | 2.02 | 16.6 | > 79.1 | > 20 |  |  |
| Cc1ccc2[nH]c(C)c(Br)c(=O)c2c1 | 0.288 | 42.2 | 0.261 | 19.6 | 1.07 | 26.4 | 74.9 |  |  |  |
| COc1cc2[nH]c(C)c(Br)c(=O)c2cc1Cl |  | 152 |  |  | 0 | 125 |  |  |  |  |
| CCCCCCCc1c(C)[nH]c2cc(OC)c(Cl)cc2c1=O | 0.0123 | < 0.01 | 0.00295 | > 37.1 | < 3.83 | < 0.01 | > 10500 | < 2 |  |  |
| COc1cccc2c(=O)c(Cc3ccccc3)c(C)[nH]c12 | > 2.24 | 125 | > 5.45 | > 35.8 | 2.24 | 164 | > 6.5 | > 20 |  |  |
| C=C(CCCCC)c1c(C)[nH]c2cc(OC)c(Cl)cc2c1=O | 0.0394 | 755 | 0.0148 | 18.9 | 3.58 | 768 | 1280 | 2 (≈ 0.64 µg/mL) |  |  |
| COc1c(-c2ccccc2)c(C)nc2ccc(Cl)cc12 | > 8.8 |  | > 8.8 |  |  |  |  |  |  |  |
| C=C(CCCCCCC)c1c(C)[nH]c2ccccc2c1=O | 0.0396 |  |  |  | 2.35 |  |  | < 2 | 1755.67 |  |
| CCCCC#Cc1c(C)[nH]c2cc(OC)c(Cl)cc2c1=O | 2.16 |  | 4.21 | 15 | 2.45 | 148 | 3.6 | > 20 |  |  |
| Cc1[nH]c2ccc(Cl)c(Cl)c2c(=O)c1-c1ccccc1 | 0.659 | 192 | 3.21 | > 32.9 | 2.83 | 285 | > 10.2 | < 2 |  |  |
| CCCCCC/C=C\Cc1c(C)[nH]c2ccccc2c1=O | 0.102 |  |  |  | 5.94 |  |  | < 2 |  |  |
| Cc1[nH]c2cc(Cl)c(Cl)cc2c(=O)c1-c1ccccc1 | 0.569 |  | 0.35 | > 32.9 | 3.05 |  | > 93.3 | < 2 |  |  |
| CCCCC#Cc1c(C)[nH]c2ccccc2c1=O | 8.29 |  | > 10.4 | 8.9 | 5.44 | 500 |  |  |  | 2137.05 |
| CCCCC#Cc1c(C)[nH]c2ccc(OC)cc2c1=O | > 9.21 |  | > 9.21 | > 36.8 | 5.25 |  | > 4 |  | 1020.6 | 2438.2 |
| COc1cc2[nH]c(C)c(Cc3ccccc3)c(=O)c2cc1Cl | 0.0937 | 566 | 0.0686 | > 31.9 | 1.99 | 575 |  |  |  |  |
| Cc1[nH]c2ccccc2c(=O)c1Cc1ccccc1 | > 5.01 | 102 | 6.2 | > 40.1 | 1.93 | 110 | > 6.5 | 10 (≈ 2.49 µg/mL) |  |  |
| Cc1[nH]c2ccc(Br)cc2c(=O)c1Br | 1.4 | 95.2 | 0.339 | > 31.5 | 1.76 | 133 | > 92.9 | > 20 |  |  |
| Cc1[nH]c2ccc(Cl)cc2c(=O)c1-c1ccccc1 | 0.244 | 108 | 0.777 | > 37.1 | 2.43 | 111 | > 47.7 | 5 (≈ 1.35 µg/mL) |  |  |
| COc1ccc2[nH]c(C)c(Br)c(=O)c2c1 | 3 | 16.7 | 1.17 | > 37.3 | 1.62 |  | > 32 | > 20 |  |  |
| COc1c(Cc2ccccc2)c(C)nc2ccc(Cl)cc12 | > 8.4 | 268 | > 8.4 |  | 4.93 | 360 |  | < 2 |  |  |

| SMILES | EC50 (Plasmodium falciparum [1]) [µM] | Papp [2] [×10⁻⁶ cm/s] | EC50 (Plasmodium falciparum [3]) [µM] | EC50 (J774) [µM] | logD [4] | Papp [5] [×10⁻⁶ cm/s] | selectivity ratio (in vitro) | solubility (physchem) [µM] | permeability [5] [×10⁻⁶ cm/s] | permeability [2] [×10⁻⁶ cm/s] |
| --- | --- | --- | --- | --- | --- | --- | --- | --- | --- | --- |
| CCN(CC)CCCC(C)Nc1ccnc2cc(Cl)ccc12 (stereo not given) [CHLOROQUINE] | 0.164 |  | 0.0482 |  |  |  |  |  |  |  |
| Cc1c(-c2ccccc2)c(=O)c2cc(Cl)ccc2n1C | > 8.8 |  | > 8.8 |  |  |  |  |  |  |  |
| COc1ccc2nc(C)c(Cc3ccccc3)c(OC)c2c1 | > 8.52 |  | > 8.52 |  | 4.2 | 294 |  | 2 (≈ 0.587 µg/mL) |  | 1067.76 |
| Cc1nc2ccccc2c(OCc2ccccc2)c1Br |  | 794 |  |  | 2.52 | 99.7 |  |  |  |  |
| O=C1C(O)=C([C@H]2CC[C@H](c3ccc(Cl)cc3)CC2)C(=O)c2ccccc21 [ATOVAQUONE] | 0.00054 |  | 6.23 |  |  |  |  |  |  |  |
| Cc1cc(=O)c2ccccc2[nH]1 | > 44.7 | 1.54 | > 62.8 | > 62.8 |  | 1.56 |  |  |  |  |
| CCCCCCCCCc1c(C)[nH]c2ccccc2c1=O | 0.0241 |  | 0.0398 | 2.8 | 4.33 |  | 69.9 |  |  |  |
| COc1ccc2c(OC)c(Cc3ccccc3)c(C)nc2c1 | > 8.52 |  | > 8.52 |  | 4.35 | 325 |  | 2 (≈ 0.587 µg/mL) |  | 1277.24 |
| COc1cccc2c(=O)c(-c3ccccc3)c(C)[nH]c12 | 2.06 | 37 | 1.67 | > 37.7 | 1.73 | 33.9 | > 22.6 |  |  |  |
| COc1ccc2[nH]c(C)c(-c3ccccc3)c(=O)c2c1 | > 9.42 | 126 | > 9.42 | > 37.7 | 1.61 |  | > 4 |  |  |  |
| COc1ccc2c(=O)c(Cc3ccccc3)c(C)n(C)c2c1 | > 8.52 | 299 | 7.84 |  | 3.24 | 432 |  | > 20 |  |  |
| Cc1[nH]c2c(Cl)c(Cl)ccc2c(=O)c1-c1ccccc1 | > 8.22 | 197 | > 8.22 | > 32.9 | 3.27 | 189 |  |  |  |  |
| Cc1c(Cc2ccccc2)c(=O)c2cc(Cl)ccc2n1C | > 8.4 | 489 | > 8.4 |  | 3.21 | 510 |  | 2 (≈ 0.596 µg/mL) |  |  |
| CCCCC#Cc1c(C)[nH]c2ccc(Cl)cc2c1=O | > 9.06 |  | 43.1 | > 36.3 | 2.98 | 171 | > 0.84 | 2 (≈ 0.548 µg/mL) |  |  |
| COc1ccc2c(=O)cc(C)[nH]c2c1 | > 13.2 | 8.91 | 12.5 | > 52.8 | 1.2 |  | > 4.2 |  |  |  |
| CCCCCCC/C=C/c1c(C)[nH]c2ccccc2c1=O | 0.0129 |  |  |  | 4.26 | 174 |  | < 2 |  |  |
| CCCCC/C=C/c1c(C)[nH]c2cc(OC)c(Cl)cc2c1=O | 0.0315 | 46.3 | 0.0106 | > 31.2 | 3.57 | 280 | > 2950 |  |  |  |
| CCCCCCCCCc1c(C)[nH]c2cc(OC)c(Cl)cc2c1=O | 0.00603 |  | 0.00159 | > 28.7 | 4.74 |  | > 18000 | < 2 |  |  |
| CCCCCCCc1c(C)nc2ccccc2c1O | 0.0932 |  | 0.105 | 5.1 | 3.39 |  | 48.3 |  |  |  |
| Cc1[nH]c2ccccc2c(=O)c1/C=C/c1ccccc1 | > 9.08 | 224 | > 9.08 | > 36.3 | 4.4 | 222 | > 4 |  |  |  |
| COc1ccc2c(c1)c(=O)c(Cc1ccccc1)c(C)n2C | > 8.52 | 268 | 8.06 |  | 2.73 | 295 |  | 10 (≈ 2.93 µg/mL) |  |  |
| COc1ccc2c(=O)c(-c3ccccc3)c(C)[nH]c2c1 | 0.287 | 9.89 | 0.269 | > 37.7 | 1.56 |  | > 140 |  |  |  |
| Cc1[nH]c2cc(Cl)ccc2c(=O)c1-c1ccccc1 | 0.216 |  | 1.86 | > 37.1 | 2.18 | 37.8 | > 19.9 | < 2 |  |  |
